Experimental data taken from the supplement of paper PMC10307832.

Columns and labels:
Test in all cases: relative viability (nuclei count vs DMSO), 5 days (fraction); higher = more cells survive
NCI-H2009 = system: NCI-H2009
Procedure, shortened: (§1)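 Lung cancer cell lines were seeded in 1536-well plates and dosed by pin tool the next day, with either a single drug or a fixed anchor-drug dose combined with five library-drug doses (not always all listed) spaced in √10 steps. Five days later, one step fixed the cells and stained their nuclei (final 0.05% Triton X-100, 1% formaldehyde, 1 ug/ml Hoechst), and nuclei were counted on 4× images. Relative viability is the nuclei count in treated wells divided by the count in vehicle wells, and each value is the median of duplicate plates.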

NCI-H2347 = system: NCI-H2347
Procedure, shortened: as §1

COR-L 105 = system: COR-L 105
Procedure, shortened: as §1

NCI-H2023 = system: NCI-H2023
Procedure, shortened: as §1

NCI-H1792 = system: NCI-H1792
Procedure, shortened: as §1

HCC-366 = system: HCC-366
Procedure, shortened: as §1

NCI-H1755 = system: NCI-H1755
Procedure, shortened: as §1

NCI-H23 = system: NCI-H23
Procedure, shortened: as §1

HCC-15 = system: HCC-15
Procedure, shortened: as §1

NCI-H1793 = system: NCI-H1793
Procedure, shortened: as §1

NCI-H1437 = system: NCI-H1437
Procedure, shortened: as §1

NCI-H650 = system: NCI-H650
Procedure, shortened: as §1

NCI-H1915 = system: NCI-H1915
Procedure, shortened: as §1

LC-2-ad = system: LC-2-ad
Procedure, shortened: as §1

PC-14 = system: PC-14
Procedure, shortened: as §1

NCI-H1395 = system: NCI-H1395
Procedure, shortened: as §1

COR-L23 = system: COR-L23
Procedure, shortened: as §1

201T = system: 201T
Procedure, shortened: as §1

EMC-BAC-2 = system: EMC-BAC-2
Procedure, shortened: as §1

NCI-H358 = system: NCI-H358
Procedure, shortened: as §1

SK-MES-1 = system: SK-MES-1
Procedure, shortened: as §1

Cc1cn(-c2cc(NC(=O)c3ccc(C)c(Nc4nccc(-c5cccnc5)n4)c3)cc(C(F)(F)F)c2)cn1 [Nilotinib] + Cc1nc(NC(=O)N2CCC[C@H]2C(N)=O)sc1-c1ccnc(C(C)(C)C(F)(F)F)c1 [Alpelisib] (partner 2 µM)
relative viability (NCI-H2009; first compound 0.001 µM): 1.13 | relative viability (NCI-H2009; first compound 0.003162 µM): 1.2 | relative viability (NCI-H2009; first compound 0.01 µM): 1.25 | relative viability (NCI-H2009; first compound 0.03162 µM): 1.14 | relative viability (NCI-H2009; first compound 0.1 µM): 1.14 | relative viability (NCI-H2347; first compound 0.001 µM): 1.01 | relative viability (NCI-H2347; first compound 0.003162 µM): 1.12 | relative viability (NCI-H2347; first compound 0.01 µM): 1.03 | relative viability (NCI-H2347; first compound 0.03162 µM): 0.981 | relative viability (NCI-H2347; first compound 0.1 µM): 1.01 | relative viability (COR-L 105; first compound 0.001 µM): 0.905 | relative viability (COR-L 105; first compound 0.01 µM): 1.22 | relative viability (COR-L 105; first compound 0.03162 µM): 0.92 | relative viability (COR-L 105; first compound 0.1 µM): 0.917 | relative viability (NCI-H2023; first compound 0.001 µM): 0.513 | relative viability (NCI-H2023; first compound 0.003162 µM): 0.655 | relative viability (NCI-H2023; first compound 0.01 µM): 0.654 | relative viability (NCI-H2023; first compound 0.03162 µM): 0.558 | relative viability (NCI-H2023; first compound 0.1 µM): 0.478 | relative viability (NCI-H1792; first compound 0.001 µM): 0.57 | relative viability (NCI-H1792; first compound 0.01 µM): 0.718 | relative viability (NCI-H1792; first compound 0.1 µM): 1.01 | relative viability (HCC-366; first compound 0.001 µM): 0.312 | relative viability (HCC-366; first compound 0.003162 µM): 0.43 | relative viability (HCC-366; first compound 0.01 µM): 0.428 | relative viability (HCC-366; first compound 0.03162 µM): 0.248 | relative viability (HCC-366; first compound 0.1 µM): 0.342 | relative viability (NCI-H1755; first compound 0.001 µM): 0.862 | relative viability (NCI-H1755; first compound 0.003162 µM): 1.13 | relative viability (NCI-H1755; first compound 0.01 µM): 0.982 | relative viability (NCI-H1755; first compound 0.03162 µM): 0.707 | relative viability (NCI-H1755; first compound 0.1 µM): 0.785 | relative viability (NCI-H23; first compound 0.001 µM): 0.654 | relative viability (NCI-H23; first compound 0.003162 µM): 0.784 | relative viability (NCI-H23; first compound 0.01 µM): 0.773 | relative viability (NCI-H23; first compound 0.03162 µM): 0.536 | relative viability (NCI-H23; first compound 0.1 µM): 0.665 | relative viability (HCC-15; first compound 0.001 µM): 0.824 | relative viability (HCC-15; first compound 0.003162 µM): 1.11 | relative viability (HCC-15; first compound 0.01 µM): 1.05 | relative viability (HCC-15; first compound 0.03162 µM): 0.727 | relative viability (HCC-15; first compound 0.1 µM): 0.616 | relative viability (NCI-H1793; first compound 0.003162 µM): 0.778 | relative viability (NCI-H1793; first compound 0.01 µM): 0.861 | relative viability (NCI-H1793; first compound 0.03162 µM): 0.625 | relative viability (NCI-H1793; first compound 0.1 µM): 0.454 | relative viability (NCI-H1437; first compound 0.001 µM): 0.829 | relative viability (NCI-H1437; first compound 0.003162 µM): 1.17 | relative viability (NCI-H1437; first compound 0.01 µM): 1.39 | relative viability (NCI-H1437; first compound 0.03162 µM): 0.75 | relative viability (NCI-H1437; first compound 0.1 µM): 0.971 | relative viability (NCI-H650; first compound 0.001 µM): 1 | relative viability (NCI-H650; first compound 0.003162 µM): 1.09 | relative viability (NCI-H650; first compound 0.01 µM): 1.4 | relative viability (NCI-H650; first compound 0.03162 µM): 0.989 | relative viability (NCI-H650; first compound 0.1 µM): 1.23 | relative viability (NCI-H1915; first compound 0.001 µM): 0.981 | relative viability (NCI-H1915; first compound 0.003162 µM): 1.1 | relative viability (NCI-H1915; first compound 0.01 µM): 1.14 | relative viability (NCI-H1915; first compound 0.03162 µM): 1.01 | relative viability (NCI-H1915; first compound 0.1 µM): 0.981 | relative viability (LC-2-ad; first compound 0.001 µM): 0.876 | relative viability (LC-2-ad; first compound 0.003162 µM): 1 | relative viability (LC-2-ad; first compound 0.01 µM): 1.03 | relative viability (LC-2-ad; first compound 0.03162 µM): 0.918 | relative viability (LC-2-ad; first compound 0.1 µM): 0.833 | relative viability (PC-14; first compound 0.003162 µM): 1.08 | relative viability (PC-14; first compound 0.03162 µM): 0.547 | relative viability (PC-14; first compound 0.1 µM): 0.888 | relative viability (NCI-H1395; first compound 0.001 µM): 0.877 | relative viability (NCI-H1395; first compound 0.003162 µM): 0.929 | relative viability (NCI-H1395; first compound 0.03162 µM): 0.977 | relative viability (NCI-H1395; first compound 0.1 µM): 0.99 | relative viability (COR-L23; first compound 0.001 µM): 0.873 | relative viability (COR-L23; first compound 0.03162 µM): 0.901 | relative viability (COR-L23; first compound 0.1 µM): 0.791 | relative viability (201T; first compound 0.003162 µM): 1.11 | relative viability (201T; first compound 0.01 µM): 1.09 | relative viability (201T; first compound 0.1 µM): 1.07 | relative viability (EMC-BAC-2; first compound 0.001 µM): 0.728 | relative viability (EMC-BAC-2; first compound 0.003162 µM): 0.893 | relative viability (EMC-BAC-2; first compound 0.01 µM): 0.883 | relative viability (EMC-BAC-2; first compound 0.03162 µM): 0.668 | relative viability (EMC-BAC-2; first compound 0.1 µM): 0.787 | relative viability (NCI-H358; first compound 0.001 µM): 0.958 | relative viability (NCI-H358; first compound 0.003162 µM): 1.18 | relative viability (NCI-H358; first compound 0.01 µM): 0.999 | relative viability (NCI-H358; first compound 0.03162 µM): 0.686 | relative viability (NCI-H358; first compound 0.1 µM): 0.666 | relative viability (SK-MES-1; first compound 0.001 µM): 0.881 | relative viability (SK-MES-1; first compound 0.003162 µM): 1.15 | relative viability (SK-MES-1; first compound 0.01 µM): 0.95 | relative viability (SK-MES-1; first compound 0.03162 µM): 0.829 | relative viability (SK-MES-1; first compound 0.1 µM): 1.01
